Series [1] addresses T1, perforin delivered by KHYG1 NK cells (Homo sapiens, UniProt P14222).
T1 construct: The use of whole NK cells to deliver perforin provides a more realistic model of conditions in vivo; endogenous in cells; host or cells: KHYG1 human NK cells (effector); K562 leukemia target cells
T1 sequence (P14222 22-555): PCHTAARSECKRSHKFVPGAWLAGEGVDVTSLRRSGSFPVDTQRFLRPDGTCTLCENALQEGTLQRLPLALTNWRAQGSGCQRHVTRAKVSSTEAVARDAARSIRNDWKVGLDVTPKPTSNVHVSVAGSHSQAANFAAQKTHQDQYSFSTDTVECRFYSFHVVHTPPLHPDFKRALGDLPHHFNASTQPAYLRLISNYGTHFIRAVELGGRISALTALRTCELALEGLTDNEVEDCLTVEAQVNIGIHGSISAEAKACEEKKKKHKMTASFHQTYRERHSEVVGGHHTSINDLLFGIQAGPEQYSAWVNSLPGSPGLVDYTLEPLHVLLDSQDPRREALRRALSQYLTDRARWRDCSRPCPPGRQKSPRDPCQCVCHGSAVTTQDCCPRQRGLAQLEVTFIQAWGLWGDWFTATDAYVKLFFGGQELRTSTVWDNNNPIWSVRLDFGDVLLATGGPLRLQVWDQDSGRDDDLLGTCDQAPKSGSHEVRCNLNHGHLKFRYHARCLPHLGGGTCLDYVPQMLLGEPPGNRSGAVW
The series can be described thus: KHYG1 inhibitory assay: lysis of 51Cr-labelled K562 target cells by KHYG1 NK cells. It is filed as cell-based. The following applies: 51Cr-labelled K562 target cells co-incubated with KHYG1 human NK cells, vs untreated control; for inhibition at 10 µM: n = 4; for KHYG1 Inhibition (% at 10 μM): n = 4, 10 µM. As to the method:
The inhibitory function is then determined by identifying the number of untreated or inhibitor treated effector cells required to kill the same number of targets.

A short description of series [2]: Solubility of the sodium salt in water. It is filed as physicochemical. The settings on record: sodium salt in water at room temperature. As for the experimental part:
The compound was dissolved in water until it was no longer soluble in order to achieve a supersaturated concentration. The suspensions were sonicated for 15 min. prior to centrifugation at 13,000 revolutions per minute (rpm) for 6 minutes. Supernatants were removed and then recentrifuged prior to dilution of at least two fold in water to avoid precipitation during HPLC analysis.

Series [3] in a line: Microsome stability, human. The format is in vitro ADME. The settings on record: parent (as sodium salt) remaining after 30 min, human microsomes. As to the method: (§1) Microsome stability was carried out at Cyprotex using pooled human liver microsomes (male and female), pooled rat liver microsomes (male, Sprague Dawley rats), pooled mouse liver microsomes (male CD-1 mice) which were either prepared or purchased from a reputable commercial supplier. […] The final incubation volume was 25 μL. A control incubation was included for each compound tested where 0.1 M phosphate buffer pH 7.4 was added instead of NADPH (minus NADPH). Two control compounds were included with each species. All incubations were performed singularly for each test compound. Each compound was incubated for 0, 5, 15, 30 and 45 min. The control (minus NADPH) was incubated for 45 min only. The reactions were stopped by the addition of 50 μL methanol containing internal standard at the appropriate time points. The incubation plates were centrifuged at 2,500 rpm for 20 min at 4 °C to precipitate the protein. Following precipitation, the sample supernatants were combined in cassettes of up to 4 compounds and analysed using Cyprotex generic LC-MS/MS conditions. From a plot of ln peak area ratio (compound peak area/internal standard peak area) against time, the percentage compound remaining at 30 min was calculated. Results that were > 100% of matched control were defined as 100%.

Series [4] is described as follows: In vivo plasma pharmacokinetics in mice. The settings on record: mouse plasma, 10 mg/kg i.p. in 20% hydroxypropyl-β-cyclodextrin. As for the experimental part:
The in vivo PK parameters were measured for seven compounds selected on the basis of the in vitro assessment described above. Plasma pharmacokinetics were determined in male CD-1 mice for compounds 3, 10, 11, 26, 50, 58 and 59 (Table 6). Blood samples were collected at 5–8 time-points after dosing the compounds at 10 mg/kg in a solution of 20% hydroxypropyl-β-cyclodextrin by intraperitoneal (IP) injection. For analysis of the samples, chromatographic conditions were optimised by HPLC for each compound of interest and an internal standard. A liquid chromatography with tandem mass spectrometry (LC-MS/MS) method was then developed and validated for quantitation of each analyte.
PK studies were carried out in female C57BL/6J (female) mice using IP administration of test compound, dosing at 10 mg/kg in a solution of 20% hydroxypropyl-β-cyclodextrin. Mice (n=3 at each time point) were culled with excess inhalation of CO2 and blood collected by cardiac puncture at 5-8 time points after dosing in ice cold EDTA tubes. Plasma was separated by centrifuging at 6000 rpm for 5 min and stored at -80°C until analysis by LC-MS/MS. Frozen plasma was thawed on wet ice on the day of analysis. Ten μL of sample was transferred to a clean microcentrifuge tube and mixed with ice cold acetonitrile (40 μL containing internal standard) to precipitate the plasma proteins. The tubes were centrifuged at 13000 rpm for 5 min to obtain a clear supernatant which was mixed with 0.01% formic acid-water (1:2). Ten to twenty µL was injected into the LC-MS/MS to measure the analyte concentration in the sample. The samples were quantitated against a calibration curve of known analyte concentrations run in test species blank plasma (sourced from Innovative Research, USA). The concentration vs time data was then fitted into a pharmacokinetic software program (Phoenix WinNonlin v6.2) to calculate the PK parameters including T½, Cmax and AUC0-∞.

Series [5] in a line: Toxicity to KHYG1 NK cells (Trypan blue exclusion). The format is cell-based, human. The following applies: human, viability of KHYG1 NK cells after 24 h, n = 3.
Series [6] in a line: Microsome stability, mouse. The format is in vitro ADME. The settings on record: parent (as sodium salt) remaining after 30 min, mouse microsomes. As to the method:
as §1

Series [7] in a line: Microsome stability, rat. It is filed as in vitro ADME. The following applies: parent (as sodium salt) remaining after 30 min, rat microsomes. As to the method:
as §1

Series [8] can be described thus: Stability in solution (water, 20 °C, 24 h). The format is physicochemical. The following applies: sodium salt, 24 h at 20 °C in water. As to the method: Test compounds were incubated (10 μM; < 2.5% DMSO in final concentration) in Milli Q water (n=3 tubes) at 20 °C for 24 h. (Eppendorf Thermomixer Comfort). Aliquots were collected (25 μL) just before the incubation (time “0 min”) and at 24 h. These samples were stored in a -80 °C freezer until the analysis by liquid chromatography with tandem mass spectrometry spectrometry (LC-MS/MS) – see next section for method development. Samples were thawed on wet ice on the day of assay. Thawed aliquots were mixed by vortex mixer, 10 μL of the sample transferred to a clean tube, 40 μL of ice cold acetonitrile added (containing internal standard compound), then centrifuged at 13,000 rpm for 5 min, 40 μL of clear supernatant transferred to an HPLC insert and mixed with 80 μL of 0.01% formic acid in water. Ten to 20 μL was injected onto the LC-MS/MS system. Results are based on the peak area ratio of drug to internal standard at time “0 h” (i.e. before the incubation and at the end i.e. “24 h”).

Details of series [9]: method as in PMID 28110869. The settings on record: sodium salt in water at room temperature; cited from earlier work.
On the set-up of series [10]: method as in PMID 28110869. The following applies: parent remaining after 30 min, rat microsomes; cited from earlier work.
On the set-up of series [11]: method as in PMID 28110869. The following applies: sodium salt, 24 h at 20 °C in water; cited from earlier work.
The subject of series [12] is KHYG1 NK cells. The series can be described thus: Toxicity to KHYG1 NK cells (Trypan blue exclusion). The format is cell-based, human. The settings on record: viability of KHYG1 NK cells after 24 h, n = 3.

These results are taken from PMC5500991, “Substituted arylsulphonamides as inhibitors of perforin-mediated lysis” (European Journal of Medicinal Chemistry, 2017).

Read-outs that look alike come from different tables or passages of the source.

Turning to `CN1Cc2cc(-c3ccc(-c4cnc(F)c(NS(=O)(=O)c5ccc(F)cc5F)c4)s3)ccc2C1=O` [Compound 10, 2,4-Difluoro-N-(2-fluoro-5-(5-(2-methyl-1-oxoisoindolin-5-yl)thiophen-2-yl)pyridin-3-yl)benzenesulphonamide], in [1], the inhibition at 10 µM was found to be 93% and the “KHYG1 Inhibition (% at 10 μM)” value was 92.5 ± 1.8%. Moreover, in series [2], the Solubility entry was “negative impact on solubility” and the solubility at 15 min stood at 428 µg/mL. Besides, the “Microsome Stability (%) Human” value in series [3] amounted to 94%. Also, in series [4], the “AUC0-∞” value stood at 2885 µM·h, the Cmax turned out to be 236 µM and the T1/2 is given as 6.6 h. In series [5], this compound came in with a viability at 24 h, 10 µM of 92 ± 3%. The “Microsome Stability (%) Mouse” value in series [6] is listed as 96%. Further, the “Microsome Stability (%) Rat” value in [7] was 100%. The “Stability in Solution (% parent remaining)” value in series [8] was 100%.

For the compound `CN1Cc2cc(-c3ccc(-c4cnc(Cl)c(NS(=O)(=O)c5ccc(F)cc5F)c4)s3)ccc2C1=O` [Compound 11, 2,4-Difluoro-N-(2-chloro-5-(5-(2-methyl-1-oxoisoindolin-5-yl)thiophen-2-yl)pyridin-3-yl)benzenesulphonamide], in series [1], the inhibition at 10 µM worked out at 95 ± 2.5%. Besides, in [2], the solubility at 15 min stood at 4030 µg/mL. The “Microsome Stability (%) Human” value in [3] turned out to be 95%. For the same compound, in series [4], the “AUC0-∞” value was 2364 µM·h, the Cmax is 149 µM and the T1/2 amounted to 9.5 h. For the same compound, the viability at 24 h, 10 µM in series [5] was 94 ± 5.3%. In addition, in [6], the “Microsome Stability (%) Mouse” value came to 97%. Besides, the “Microsome Stability (%) Rat” value in series [7] was found to be 99%. The “Stability in Solution (% parent remaining)” value in [8] is recorded as 100%.

As to `CN1Cc2cc(-c3ccc(-c4cncc(NS(=O)(=O)c5ccc(F)cc5F)c4)s3)ccc2C1=O` [Compound 3], in [1], the inhibition at 10 µM was determined as 67.5 ± 17.5%. For the same compound, in series [9], the Solubility was 1080 µg/mL. Also, in series [10], the “Microsome Stability (%) Rat” value is on record as 99%. Moreover, in series [4], the “AUC0-∞” value worked out at 220 µM·h, the peak level (Cmax) was 10 µM and the T1/2 worked out at 12.0 h. In [5], this compound had a viability at 24 h, 10 µM of 100%. In [11], the “Stability in Solution (% parent remaining)” value is recorded as 82%.

Take `CN1Cc2cc(-c3ccc(-c4cncc(NS(=O)(=O)c5ccccc5[N+](=O)[O-])c4)s3)ccc2C1=O` [Compound 58, N-(5-(5-(2-Methyl-1-oxoisoindolin-5-yl)thiophen-2-yl)pyridin-3-yl)-2-nitrobenzenesulfonamide]: in series [1], the inhibition at 10 µM amounted to 96% and the “KHYG1 Inhibition (% at 10 μM)” value was 95.6 ± 1.9%. In series [2], the solubility at 15 min came to 671 µg/mL. For the same compound, the “Microsome Stability (%) Human” value in [3] is given as 73%. For the same compound, in series [4], the “AUC0-∞” value was found to be 415 µM·h, the Cmax came out at 105 µM and the T1/2 was 2.5 h. This compound returned a viability at 24 h, 10 µM in series [5] of 98.7 ± 1.5%. In series [6], the “Microsome Stability (%) Mouse” value was found to be 100%. Moreover, the “Microsome Stability (%) Rat” value in series [7] is given as 89%. Moreover, the “Stability in Solution (% parent remaining)” value in [8] is recorded as 100%.

As for `CN1Cc2cc(-c3ccc(-c4cncc(NS(=O)(=O)c5ccc(C(=O)O)cc5)c4)s3)ccc2C1=O` [Compound 55, 4-(N-(5-(5-(2-Methyl-1-oxoisoindolin-5-yl)thiophen-2-yl)pyridin-3-yl)sulfamoyl)benzoic acid], the melting point is over 310 °C. The “KHYG1 Viability (% at 10 μM)” value in [12] was “toxic to the NK cells”.
